Source: publication PMC8037650, “Biochemical Characterization of Recombinant UDPG-Dependent IAA Glucosyltransferase from Maize (Zea mays)” (International Journal of Molecular Sciences, 2021)

Columns and labels:
IAGlc synthase [1] = molecular target: T1, IAGlc synthase (Zea mays, UniProt Q41819); test: coupled spectrophotometric assay, […] acceptor (relative activity); format: biochemical
T1 construct: gene IAGLU; recombinant, N-terminally His-tagged, expressed in E. coli
T1 sequence (Q41819 1-471): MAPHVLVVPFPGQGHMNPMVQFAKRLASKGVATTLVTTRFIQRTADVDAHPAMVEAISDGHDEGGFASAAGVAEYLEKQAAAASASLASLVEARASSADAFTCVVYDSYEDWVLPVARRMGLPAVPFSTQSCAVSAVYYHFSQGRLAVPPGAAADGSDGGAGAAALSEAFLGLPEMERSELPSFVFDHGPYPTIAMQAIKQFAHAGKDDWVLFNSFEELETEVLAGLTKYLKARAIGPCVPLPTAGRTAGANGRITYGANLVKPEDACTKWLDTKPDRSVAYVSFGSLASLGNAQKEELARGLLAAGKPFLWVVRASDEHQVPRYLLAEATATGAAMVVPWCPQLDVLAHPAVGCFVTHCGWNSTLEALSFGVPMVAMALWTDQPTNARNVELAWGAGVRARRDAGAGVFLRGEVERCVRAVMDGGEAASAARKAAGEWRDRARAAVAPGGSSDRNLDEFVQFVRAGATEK

IAGlc synthase [2] = molecular target: T1, IAGlc synthase; test: […]IAA glucosylation TLC radioassay, Dixon plot; format: biochemical

Relative Activity (%) (IAGlc synthase [1])	Compound	Ki (IAGlc synthase [2])
66%	O=C(O)CCCc1c[nH]c2ccccc12 [IBA, indole-3-butyric acid]	
	O=C(O)COc1ccc(Cl)cc1Cl [2,4-D, 2,4-dichlorophenoxyacetic acid]	117 ± 10 µM
49.7%	O=C(O)CCc1c[nH]c2ccccc12 [IPA, indole-3-propionic acid]	
